According to PubChem BioAssay AID318 (DTP/NCI, 2004):
“And” between values parts separate entries of the source, which are not always exact repeats. Equal entries are not always repeated. Toxic doses and inconclusive results are not listed.

Test system: BDF1 mice, P815 leukemia ip, survival T/C
Assay: NCI In Vivo Anticancer Drug Screen. Data for tumor model P815 Mast Cell Leukemia (Ascitic) (intraperitoneal) in B6D2F1 (BDF1) mice
Details: endpoint: survival time, mean or median, higher = longer survival
Description: The antitumor activity of compounds was measured in mice bearing transplantable tumors. Survival or tumor size were measured and the results are expressed as the measurement made in the treated group (T) divided by the measurement made in the vehicle treated control group (C). The tumor model used in this assay is P815 Mast Cell Leukemia (Ascitic) (intraperitoneal) in B6D2F1 (BDF1) mice

[1] = dose: 27.0 mg/kg/injection, schedule: Q01DX010 (ip), vehicle: saline
[2] = dose: 40.0 mg/kg/injection, schedule: Q01DX010 (ip), vehicle: saline
[3] = dose: 12.0 mg/kg/injection, schedule: Q01DX010 (ip), vehicle: saline

Nc1nc(=S)c2ncn(C3OC(CO)C(O)C3O)c2[nH]1 (configuration not stated)
T/C (dose: 2.0 mg/kg/injection, schedule: Q01DX010 (ip), vehicle: saline): 155 % of control

CC/C(=C(/CC)c1ccc(O)cc1)c1ccc(O)cc1
T/C (dose: 12.5 mg/kg/injection, schedule: Q01DX010 (sc), vehicle: steriod suspending solution): 100 % of control and 104 % of control | T/C (dose: 25.0 mg/kg/injection, schedule: Q01DX010 (sc), vehicle: steriod suspending solution): 100 % of control and 109 % of control | T/C (dose: 50.0 mg/kg/injection, schedule: Q01DX010 (sc), vehicle: steriod suspending solution): 100 % of control and 104 % of control | T/C (dose: 100.0 mg/kg/injection, schedule: Q01DX010 (sc), vehicle: steriod suspending solution): 100 % of control and 109 % of control

Oc1ccccc1C(Nc1nc2ccccc2s1)c1ccc2cccnc2c1O (configuration not stated)
T/C (dose: 62.5 mg/kg/injection, schedule: Q01DX015 (ip), vehicle: other): 90 % of control | T/C (dose: 125.0 mg/kg/injection, schedule: Q01DX015 (ip), vehicle: other): 120 % of control | T/C (dose: 250.0 mg/kg/injection, schedule: Q01DX015 (ip), vehicle: other): 98 % of control

O=C(Nc1cccc(NC(=O)Nc2cccc(C3=NCCN3)c2)c1)Nc1cccc(C2=NCCN2)c1
T/C [1]: 121 % of control | T/C [2]: 117 % of control | T/C (dose: 66.0 mg/kg/injection, schedule: Q01DX010 (ip), vehicle: saline): 113 % of control | T/C (dose: 90.0 mg/kg/injection, schedule: Q01DX010 (ip), vehicle: saline): 86 % of control

O=C(Nc1ccc(C2=NCCN2)cc1)c1cc(Cl)cc(C(=O)Nc2ccc(C3=NCCN3)cc2)c1
T/C (dose: 140.0 mg/kg/injection, schedule: Q01DX010 (ip), vehicle: saline): 91 % of control | T/C (dose: 210.0 mg/kg/injection, schedule: Q01DX010 (ip), vehicle: saline): 95 % of control | T/C (dose: 315.0 mg/kg/injection, schedule: Q01DX010 (ip), vehicle: saline): 86 % of control | T/C (dose: 473.0 mg/kg/injection, schedule: Q01DX010 (ip), vehicle: saline): 91 % of control

CN(C)CC(=O)c1ccc(O)c(O)c1
T/C (dose: 200.0 mg/kg/injection, schedule: Q01DX010 (ip), vehicle: saline): 120 % of control | T/C (dose: 300.0 mg/kg/injection, schedule: Q01DX010 (ip), vehicle: saline): 100 % of control | T/C (dose: 450.0 mg/kg/injection, schedule: Q01DX010 (ip), vehicle: saline): 95 % of control

CC1CN=C(c2ccc(NC(=O)c3cccc(C(=O)Nc4ccc(C5=NCC(C)N5)cc4)c3)cc2)N1 (configuration not stated)
T/C [3]: 112 % of control | T/C (dose: 18.0 mg/kg/injection, schedule: Q01DX010 (ip), vehicle: saline): 104 % of control | T/C [1]: 112 % of control

CN(C)c1ccc(/C=C\c2ccnc3ccccc23)cc1
T/C (dose: 1.5 mg/kg/injection, schedule: Q01DX010 (ip), vehicle: saline): 90 % of control | T/C (dose: 3.0 mg/kg/injection, schedule: Q01DX010 (ip), vehicle: saline): 90 % of control | T/C (dose: 6.0 mg/kg/injection, schedule: Q01DX010 (ip), vehicle: saline): 90 % of control | T/C [3]: 90 % of control

C[C@H](N)C(=O)N[C@@H]1[C@H]2C(=C(O)C[C@@H](O)[C@@H]2O)C(=O)O[C@@H]1C
T/C (dose: 150.0 mg/kg/injection, schedule: Q01DX010 (ip), vehicle: saline): 122 % of control | T/C (dose: 1200.0 mg/kg/injection, schedule: Q01DX010 (ip), vehicle: saline): 183 % of control

CCOC(=O)c1c[nH]c2ccc(N(CCCl)CCCl)cc12
T/C (dose: 5.0 mg/kg/injection, schedule: Q01DX010 (ip), vehicle: saline): 100 % of control | T/C (dose: 10.0 mg/kg/injection, schedule: Q01DX010 (ip), vehicle: saline): 100 % of control | T/C (dose: 20.0 mg/kg/injection, schedule: Q01DX010 (ip), vehicle: saline): 100 % of control | T/C [2]: 105 % of control | T/C (dose: 80.0 mg/kg/injection, schedule: Q01DX010 (ip), vehicle: saline): 112 % of control

C(CC1CO1)C1CO1 (configuration not stated)
T/C (dose: 40.0 mg/kg/injection, schedule: Q01DX015 (ip), vehicle: saline): 150 % of control | T/C (dose: 60.0 mg/kg/injection, schedule: Q01DX015 (ip), vehicle: saline): 172 % of control

COc1cc(-c2ccc(Nc3ccccc3C(=O)O)c(OC)c2)ccc1Nc1ccccc1C(=O)O
T/C (dose: 45.0 mg/kg/injection, schedule: Q01DX010 (ip), vehicle: saline): 108 % of control | T/C (dose: 67.0 mg/kg/injection, schedule: Q01DX010 (ip), vehicle: saline): 120 % of control
